From US10988523B2, “Modified lipidated Relaxin B chain peptides and their therapeutic use” (Sanofi, priority 2018, dated 2021) come the findings set out here.

Like-named read-outs stand apart in the source and are kept apart here. *1 amine or outer side, *2 acyl side, *3 side chain or, on linkers, in order; H or OH if unused. Where a SMILES comes first, the peptide text is derived from it. Side-chain parts run from the residue outwards. [ ]: non-standard residue; d: D form. The star is where a group is joined. PEG12 = NCCOCCOCCOCCOCCOCCOCCOCCOCCOCCOCCOCCOCCC(=O)O; γGlu = O=C(O)[C@H](CCC(=O)[*:2])N[*:1]; Stearoyl = CCCCCCCCCCCCCCCCCC(=O)*; Palmitoyl = CCCCCCCCCCCCCCCC(=O)*; αMeK = C[C@](N)(CCCCN)C(=O)O; Nle = CCCC[C@H](N)C(=O)O; AEEA = NCCOCCOCC(=O)O; Aib = CC(C)(N)C(=O)O

Series [1] addresses T1, RXFP1 (Homo sapiens, UniProt Q9HBX9).
T1 construct: OVCAR5 cells expressing endogenous RXFP1; endogenous in cells; host or cells: OVCAR5 cells
T1 sequence (Q9HBX9 1-757): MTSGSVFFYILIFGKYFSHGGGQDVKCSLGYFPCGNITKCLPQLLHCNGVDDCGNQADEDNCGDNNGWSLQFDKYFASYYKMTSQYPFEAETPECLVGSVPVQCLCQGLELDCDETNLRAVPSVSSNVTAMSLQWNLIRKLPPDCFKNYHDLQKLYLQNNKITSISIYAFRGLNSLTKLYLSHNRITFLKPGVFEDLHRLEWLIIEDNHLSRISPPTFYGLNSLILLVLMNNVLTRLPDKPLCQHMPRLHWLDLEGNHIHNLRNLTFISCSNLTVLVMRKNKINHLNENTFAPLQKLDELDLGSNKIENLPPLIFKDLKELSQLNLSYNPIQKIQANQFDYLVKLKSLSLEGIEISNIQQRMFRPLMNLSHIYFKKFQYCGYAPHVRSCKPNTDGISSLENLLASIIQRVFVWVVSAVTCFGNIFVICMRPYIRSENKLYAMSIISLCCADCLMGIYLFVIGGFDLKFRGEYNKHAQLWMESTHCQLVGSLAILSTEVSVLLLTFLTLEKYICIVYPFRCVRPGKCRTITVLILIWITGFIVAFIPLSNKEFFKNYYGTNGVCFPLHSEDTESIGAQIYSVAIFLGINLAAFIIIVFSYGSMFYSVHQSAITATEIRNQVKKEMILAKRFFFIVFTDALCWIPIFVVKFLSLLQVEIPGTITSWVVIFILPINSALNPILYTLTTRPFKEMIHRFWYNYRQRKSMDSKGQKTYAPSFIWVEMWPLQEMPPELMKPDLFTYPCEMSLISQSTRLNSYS
Description: OVCAR5 cAMP assay (HTRF), RXFP1 agonist activity. As to conditions: for EC50: OVCAR5 cells, cAMP HTRF, read-out: EC50 (nM), OVCAR 5 cells (cAMP); for Emax: OVCAR-5, maximal cAMP relative to H2-relaxin maximum (100%), read-out: EMax, OVCAR 5 cells (cAMP). Type of series: cell-based. In short, it runs like this:
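OVCAR5 cells (endogenous RXFP1) pretreated 40 min at 37° C with 1 mM IBMX, then exposed to peptides in serum-free medium for 30 min at 37° C. Lysate cAMP read by HTRF; EC50 from variable-slope sigmoidal fit; Emax as % of H2-relaxin maximal cAMP in same run.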
A general note: Cyclic AMP is a second messenger, typically raised through Gs and lowered through Gi signalling.

A short description of series [2]: Stability testing of peptides in human plasma or blood. It counts as in vitro ADME. As to conditions: 37° C.; for Human Plasma stability % remaining T = 0: human plasma or blood, T = 0 (reference), 5 μM. In short, it runs like this: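 Peptide at 5 µM final was incubated at 37 °C in heparinized rat or human plasma or blood, sampled up to 4 h, and extracted with acetonitrile/1% TFA. HPLC peak areas relative to t0 give % remaining peptide.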

Setting [3] is: whole blood, human blood, read-out: Human stability in blood % remaining 1 h.
Setting [4] is: whole blood, human blood, read-out: Human stability in blood % remaining 4 h.
[5] abbreviates: human plasma, read-out: Human Plasma stability % remaining 1 h.
[6] abbreviates: human plasma, read-out: Human Plasma stability % remaining 4 h.

A word on the EC50: it is the concentration needed to bring the measured effect to its halfway point. The term Emax denotes the maximal effect, on the per cent scale that the assay sets. For `CCCCCCCCCCCCCCCC(=O)N[C@@H](CCC(=O)N[C@@H](CCC(=O)N[C@@H](CCC(=O)N[C@@H](CCC(=O)NCCCC[C@H](NC(=O)COCCOCCNC(=O)COCCOCCNC(=O)COCCOCCNC(=O)COCCOCCNC(=O)[C@H](CCCCNC(C)=O)NC(=O)[C@H](C)NC(=O)[C@H](CCCNC(=N)N)NC(=O)[C@](C)(CCCCN)NC(=O)[C@H](CO)NC(=O)[C@H](Cc1ccccc1)NC(=O)[C@@H](NC(=O)[C@H](CO)NC(=O)[C@H](CCC(N)=O)NC(=O)CNC(=O)[C@H](CCC(=O)O)NC(=O)C(C)(C)NC(=O)C(C)(C)NC(=O)[C@@H](NC(=O)[C@H](CCCCNC(C)=O)NC(=O)[C@H](C)NC(=O)[C@H](CCCNC(=N)N)NC(=O)[C@@H](NC(=O)[C@H](CCCCN)NC(=O)[C@H](CCC(=O)O)NC(=O)[C@H](CCCNC(=N)N)NC(=O)CNC(=O)[C@H](CCC(=O)O)NC(=O)[C@H](CC(C)C)NC(C)=O)C(C)C)[C@@H](C)CC)[C@@H](C)O)C(N)=O)C(=O)O)C(=O)O)C(=O)O)C(=O)O` [compound 170] (Ac-LEGREKVRAK(Ac)I[Aib][Aib]EGQSTFS[αMeK]RAK(Ac)[AEEA][AEEA][AEEA][AEEA]K([γGlu-γGlu-γGlu-γGlu-Palmitoyl])-NH2), in series [1], the EC50 was found to be 0.01 nM and the Emax came to 87%. Also, the “Human Plasma stability % remaining T = 0” value in series [2] is 100%. Besides, in series [2] (setting [3]), the share remaining at 1 h, 5 µM was found to be 107%. For the same compound, the fraction remaining at 4 h, 5 µM in series [2] (setting [4]) amounted to 106%.
Take `CCCCCCCCCCCCCCCCCC(=O)N[C@@H](CCC(=O)N[C@@H](CCC(=O)N[C@@H](CCC(=O)NCCOCCOCC(=O)NCCOCCOCC(=O)NCCOCCOCC(=O)NCCCC[C@H](NC(=O)[C@H](CCCCNC(C)=O)NC(=O)[C@H](CCCCN)NC(=O)[C@H](CCCNC(=N)N)NC(=O)C(C)(C)NC(=O)[C@H](CO)NC(=O)[C@H](Cc1c[nH]c2ccccc12)NC(=O)[C@@H](NC(=O)[C@H](CO)NC(=O)[C@H](CCCC)NC(=O)CNC(=O)[C@H](CCC(=O)O)NC(=O)C(C)(C)NC(=O)C(C)(C)NC(=O)[C@@H](NC(=O)[C@H](CCCCNC(C)=O)NC(=O)[C@H](C)NC(=O)[C@H](CCCNC(=N)N)NC(=O)[C@@H](NC(=O)[C@H](CCCCN)NC(=O)[C@H](CCC(=O)O)NC(=O)[C@H](CCCNC(=N)N)NC(=O)CNC(=O)[C@H](CCC(=O)O)NC(=O)[C@H](CC(C)C)NC(C)=O)C(C)C)[C@@H](C)CC)[C@@H](C)O)C(N)=O)C(=O)O)C(=O)O)C(=O)O` [compound 81] (Ac-LEGREKVRAK(Ac)I[Aib][Aib]EG[Nle]STWS[Aib]RKK(Ac)K([AEEA-AEEA-AEEA-γGlu-γGlu-γGlu-Stearoyl])-NH2): in series [1], the EC50 turned out to be 0.22 nM and the Emax amounted to 84%. Besides, in series [2], the “Human Plasma stability % remaining T = 0” value stood at 100%. In addition, in series [2] (setting [5]), the share remaining at 1 h, 5 µM was determined as 111%. In addition, in series [2] (setting [6]), the share remaining at 4 h, 5 µM turned out to be 111%.
Turning to `CCCCCCCCCCCCCCCC(=O)N[C@@H](CCC(=O)N[C@@H](CCC(=O)N[C@@H](CCC(=O)N[C@@H](CCC(=O)NCCCC[C@H](NC(=O)COCCOCCNC(=O)COCCOCCNC(=O)COCCOCCNC(=O)COCCOCCNC(=O)[C@H](CCCCNC(C)=O)NC(=O)[C@H](C)NC(=O)[C@H](CCCNC(=N)N)NC(=O)[C@](C)(CCCCN)NC(=O)[C@H](CO)NC(=O)[C@H](Cc1ccccc1)NC(=O)[C@@H](NC(=O)[C@H](CO)NC(=O)[C@H](CCCC)NC(=O)CNC(=O)[C@H](CCC(=O)O)NC(=O)C(C)(C)NC(=O)C(C)(C)NC(=O)[C@@H](NC(=O)[C@H](CCCCNC(C)=O)NC(=O)[C@H](C)NC(=O)[C@H](CCCNC(=N)N)NC(=O)[C@@H](NC(=O)[C@H](CCCCN)NC(=O)[C@H](CCC(=O)O)NC(=O)[C@H](CCCNC(=N)N)NC(=O)CNC(=O)[C@H](CCC(=O)O)NC(=O)[C@H](CC(C)C)NC(C)=O)C(C)C)[C@@H](C)CC)[C@@H](C)O)C(N)=O)C(=O)O)C(=O)O)C(=O)O)C(=O)O` [compound 150] (Ac-LEGREKVRAK(Ac)I[Aib][Aib]EG[Nle]STFS[αMeK]RAK(Ac)[AEEA][AEEA][AEEA][AEEA]K([γGlu-γGlu-γGlu-γGlu-Palmitoyl])-NH2), in series [1], the EC50 was determined as 0.07 nM and the Emax turned out to be 92%. Moreover, in series [2], the “Human Plasma stability % remaining T = 0” value is 100%. In addition, in series [2] (setting [3]), the share remaining at 1 h, 5 µM turned out to be 34%. For the same compound, the share remaining at 4 h, 5 µM in series [2] (setting [4]) turned out to be 78%.
Take `CCCCCCCCCCCCCCCC(=O)N[C@@H](CCC(=O)N[C@@H](CCC(=O)N[C@@H](CCC(=O)NCCOCCOCC(=O)NCCOCCOCC(=O)NCCCC[C@H](NC(=O)[C@H](CCCCN)NC(=O)[C@H](CCCNC(=N)N)NC(=O)C(C)(C)NC(=O)[C@H](CO)NC(=O)[C@H](Cc1c[nH]c2ccccc12)NC(=O)[C@@H](NC(=O)[C@H](CO)NC(=O)[C@H](CCCC)NC(=O)CNC(=O)[C@H](CCC(=O)O)NC(=O)C(C)(C)NC(=O)C(C)(C)NC(=O)[C@@H](NC(=O)[C@H](CCC(N)=O)NC(=O)[C@H](C)NC(=O)[C@H](CCCNC(=N)N)NC(=O)[C@@H](NC(=O)[C@H](CCCCN)NC(=O)[C@H](CCC(=O)O)NC(=O)[C@H](CCCNC(=N)N)NC(=O)CNC(=O)[C@H](CCC(=O)O)NC(=O)[C@H](CC(C)C)NC(C)=O)C(C)C)[C@@H](C)CC)[C@@H](C)O)C(N)=O)C(=O)O)C(=O)O)C(=O)O` [compound 58] (Ac-LEGREKVRAQI[Aib][Aib]EG[Nle]STWS[Aib]RKK([AEEA-AEEA-γGlu-γGlu-γGlu-Palmitoyl])-NH2): the Emax in series [1] turned out to be 83%. Further, the “Human Plasma stability % remaining T = 0” value in series [2] turned out to be 100%. In addition, the share remaining at 1 h, 5 µM in series [2] (setting [5]) was 100%. Further, the amount remaining at 4 h, 5 µM in series [2] (setting [6]) was found to be 11%.
As for `CCCCCCCCCCCCCCCCCC(=O)N[C@@H](CCC(=O)N[C@@H](CCC(=O)N[C@@H](CCC(=O)NCCCC[C@H](NC(=O)CCOCCOCCOCCOCCOCCOCCOCCOCCOCCOCCOCCOCCNC(=O)[C@H](CCCCNC(C)=O)NC(=O)[C@H](CCCCN)NC(=O)[C@H](CCCNC(=N)N)NC(=O)C(C)(C)NC(=O)[C@H](CO)NC(=O)[C@H](Cc1c[nH]c2ccccc12)NC(=O)[C@@H](NC(=O)[C@H](CO)NC(=O)[C@H](CCCC)NC(=O)CNC(=O)[C@H](CCC(=O)O)NC(=O)C(C)(C)NC(=O)C(C)(C)NC(=O)[C@@H](NC(=O)[C@H](CCCCNC(C)=O)NC(=O)[C@H](C)NC(=O)[C@H](CCCNC(=N)N)NC(=O)[C@@H](NC(=O)[C@H](CCCCN)NC(=O)[C@H](CCC(=O)O)NC(=O)[C@H](CCCNC(=N)N)NC(=O)CNC(=O)[C@H](CCC(=O)O)NC(=O)[C@H](CC(C)C)NC(C)=O)C(C)C)[C@@H](C)CC)[C@@H](C)O)C(N)=O)C(=O)O)C(=O)O)C(=O)O` [compound 33] (Ac-LEGREKVRAK(Ac)I[Aib][Aib]EG[Nle]STWS[Aib]RKK(Ac)[PEG12]K([γGlu-γGlu-γGlu-Stearoyl])-NH2), in series [1], the EC50 was 0.61 nM and the Emax stood at 100%. Besides, the “Human Plasma stability % remaining T = 0” value in series [2] is reported as 100%. Moreover, the fraction remaining at 1 h, 5 µM in series [2] (setting [5]) stood at 99%. Moreover, the amount remaining at 4 h, 5 µM in series [2] (setting [6]) is 96%.
